In patent US20250319139A1, “METHODS FOR TREATING NEUROINFLAMMATION” (University of Virginia Patent Foundation, priority 2021, published 2025):

System: GDNF
Assay: GDNF in the hippocampus by ELISA
Format: in vivo, mouse
Details: exercise mice with surgery; intraperitoneal valeric acid
Protocol: IL-1β, IL-6, C3 and GDNF in the hippocampus were detected by using ELISA kits. For testing the IL-1β, IL-6 and GDNF, brain tissues were homogenized on ice in the RIPA buffer containing 25 mM Tris-HCl with pH 7.6, 150 mM NaCl, 1% sodium deoxycholate, 0.1% SDS and a protease inhibitor cocktail containing 10 mg/ml aproteinin, 5 mg/ml […], 5 mg/ml leupetin and 1 mM phenylmethane sulfonylfluoride. For C3 testing, brain tissues were homogenized on ice in the PTR buffer (supplied in the kit). The supernatant was collected for ELISA detection after the homogenate was centrifuged at 13,000 g for 20 min at 4° C. and the protein concentration was determined by the BCA protein assay (Bio-Rad, Hemel Hempstead, Herts, UK). IL-1β, IL-6, C3 and GDNF in supernatant of brain were detected according to the manufacturer's instruction for ELISA, and the amount of them in each sample in the brain was normalized by its total protein content and was expressed as pg/mg protein.

SMILES: CCCCC(=O)O [valeric acid]
- GDNF levels in the hippocampus: decreased
